The results in this text go back to PubChem BioAssay AID463136 (University of Pittsburgh Molecular Library Screening Center, 2010).

Usually IC50 stands for the concentration that gives 50% inhibition. One may read the inhibition as the drop in the measured response relative to a control, in per cent.

Records with an inconclusive call do not appear. Active and inactive are the calls of the source. How the calls were made is not given here.

The test system of assay [1] is HCS imaging, dynein-mediated cargo transport inhibition. As to the kind of experiment: blockers of dynein-driven microtubule transport – imaging, high-content imaging, dose response (AID 463136).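 Further: mouse mammary adenocarcinoma 3617.4 cells expressing GFP-tagged rat glucocorticoid receptor.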
Assay in assay [2]: as above
As to conditions: HCS imaging, dynein-mediated cargo transport inhibition; inhibition at max concentration; at 50 µM; stronger effect = higher value.

For the compound `COC(=O)c1cc([N+](=O)[O-])c(-n2cncn2)c([N+](=O)[O-])c1`, in assay [1], the IC50 is > 50 µM (inactive). For the same compound, in assay [2], the inhibition is 12.4%.
On the same counts, the results for `O=C1/C(=C/c2ccccc2[N+](=O)[O-])COc2ccccc21` are > 50 µM (inactive) and 39.6%.
On the same counts, the results for `Cc1nc([N+](=O)[O-])c(Br)n1Cc1ccccc1` are 6.35 µM and 84.8%.
With `O=C1C(Cl)=C(N2CCCCC2)C(=O)C(Cl)=C1c1cnc(N2CCCCC2)s1`, the IC50 in assay [1] was 33.2 µM. The inhibition in assay [2] was determined as 94.6%.
Regarding `O=C(CCl)c1ccc2c(c1)CCN2C(=O)C1CCCCC1`, in assay [1], the IC50 was 27 µM. Further, the inhibition in assay [2] was 78.2%.
On the same counts, the results for `O=C(Nc1ccc(F)cc1)c1nn(-c2ccccc2)c(=O)cc1Cl` are 35.7 µM and 76.4%.
In the same order, the values of `COc1ccc(NC(=O)/C(Cl)=C(/Cl)S(=O)Cc2ccccc2)cn1` (stereo not drawn) are 19.5 µM and 64.4%.
In the same order, the values of `COc1ccc(-n2ncc(Cl)c(Cl)c2=O)cc1` are 21.6 µM and 84.7%.
As for `O=C1C(Cl)=C(NCCN2CCCCC2)C(=O)c2ccccc21`, the IC50 in assay [1] was 31.8 µM. For the same compound, the inhibition in assay [2] turned out to be 63.5%.
Take `N#Cc1cccc(NC(=O)CSc2ccc3c4c(cccc24)C(=O)c2ccccc2-3)c1`: the IC50 in assay [1] was 33.3 µM. In addition, the inhibition in assay [2] was 104%.
Consider `Cc1ccc(N2C(=N)/C(=C3/Nc4ccccc4S3)C(c3ccccc3)C2=O)cc1` (stereo not drawn), for which the IC50 in assay [1] was 23.2 µM. In assay [2], the inhibition stood at 81.8%.
On the same counts, the results for `Cn1c(=O)c(NCCc2ccccc2)c2c3c(cccc31)C(=O)c1ccccc1-2` are > 50 µM (inactive) and 19%.
On the same counts, the results for `CCOC(=O)C(=Cc1ccc(-n2cncn2)cc1)C(=O)OCC` are 33.7 µM and 89.8%.
In the same order, the values of `Cc1ccccc1-n1sc2cc(F)ccc2c1=O` are 13.6 µM and 96.2%.
Regarding `CCN1/C(=C/c2ccc3ccc(C)cc3[n+]2CC)Sc2ccccc21`, the IC50 in assay [1] was 2.13 µM. Besides, the inhibition in assay [2] is 98.5%.
In the same order, the values of `Nc1c(C(=O)c2cccs2)sc2nsc(SCCN3CCCCC3)c12` are > 50 µM (inactive) and 11.4%.
On the same counts, the results for `C=C1C(=O)O[C@H]2C[C@@H](C)[C@@H]3C=CC(=O)[C@@]3(C)C[C@H]12` are 8.71 µM and 89.6%.
On the same counts, the results for `COc1ccc(-c2cc(C(F)(F)F)nc(S(=O)(=O)CCCC(=O)Nc3cc(C)on3)n2)cc1OC` are 42.9 µM and 67.2%.
On to `O=C1NC(=O)N(c2ccccc2)C(=O)/C1=C\C=C\c1ccccc1`, for which the IC50 in assay [1] was 28.8 µM. In addition, in assay [2], the inhibition was determined as 80.9%.
For `CCCCc1c(C)c(C#N)c2nc3ccccc3n2c1Cl`, the IC50 in assay [1] is > 50 µM (inactive). Also, the inhibition in assay [2] is -60.6%.
Turning to `COC(=O)[C@@]1(Cc2ccccc2)[C@@H]2C(=CC(=O)[C@H]2CC(=O)C(=O)N(C)C)CN1C(=O)c1ccccc1`, in assay [1], the IC50 is 4.67 µM. For the same compound, the inhibition in assay [2] worked out at 86.2%.
On the same counts, the results for `Cc1c(N=C2C=CC(=O)c3ccccc32)c(=O)n(-c2ccccc2)n1C` are 39.6 µM and 76.4%.
On the same counts, the results for `O=c1cc(N=Nc2ccc(Cl)cc2)[nH]c(=O)[nH]1` are 13.6 µM and 80.6%.
On the same counts, the results for `Cn1ncc(S(=O)(=O)Cc2ccccc2)c(Cl)c1=O` are > 50 µM (inactive) and 10.6%.
Take `CCOc1ccc(CN(C)C(=O)CCl)cc1`: the IC50 in assay [1] was 10.2 µM. The inhibition in assay [2] amounted to 85.8%.
In the same order, the values of `O=c1oc2c3c4c(cc2c(C(F)(F)F)c1CCN1CCOCC1)CCCN4CCC3` are 36.4 µM and 99.3%.
On the same counts, the results for `CCN(CC)c1ccc2cc(-c3nc4ccccc4[nH]3)c(=O)oc2c1` are 21.9 µM and 98.9%.
On the same counts, the results for `Cc1ccc(-n2nnnc2Sc2ccc(S(=O)(=O)NCCN(C)C)cc2[N+](=O)[O-])cc1` are 11.9 µM and 86.3%.
With `BrC(=C\c1ccccc1)/C=N/n1cnnc1`, the IC50 in assay [1] is 18.4 µM. Further, in assay [2], the inhibition was found to be 90.7%.
As for `CC(=O)/C=C/n1c(=S)oc2ccccc21`, in assay [1], the IC50 was 23.4 µM. Besides, in assay [2], the inhibition was 69.5%.
On the same counts, the results for `COC(=O)c1cc(=O)n(CCc2ccccc2F)c(=Nc2ccc(F)c(Cl)c2)s1` are > 50 µM (inactive) and 11.9%.
On the same counts, the results for `COc1ccccc1N1C(=O)CC(Sc2n[nH]c(-c3cccc(C)c3)n2)C1=O` (stereo not drawn) are > 50 µM (inactive) and 5.74%.
With `CC1=NN(c2ccccc2)C(=O)/C1=C/C=C/c1ccccc1`, in assay [1], the IC50 is > 50 µM (inactive). Also, the inhibition in assay [2] stood at 22.7%.
On to `N#CC12COC3(CCCCC3C1(C#N)C#N)OC2=N` (stereo not drawn), for which the IC50 in assay [1] was > 50 µM (inactive). Besides, the inhibition in assay [2] was determined as 8.2%.
For `COc1cc(/C=C2\COC/C(=C\c3ccc(O)c(OC)c3)C2=O)ccc1O`, the IC50 in assay [1] is 39.7 µM. In addition, the inhibition in assay [2] was 64.3%.
On the same counts, the results for `COc1ccc(CN=Cc2[nH]c3ccc(Br)c(Cl)c3c2O)cc1` are 28.5 µM and 93.4%.
Regarding `Cc1cc(C)nc(S/C=C/C(=O)c2ccccc2F)n1`, the IC50 in assay [1] is 19.3 µM. Also, in assay [2], the inhibition was found to be 83.3%.
In the same order, the values of `Cc1ccc(N2C(=O)NC(=O)/C(=C/C=C/c3ccco3)C2=O)cc1` are 24.8 µM and 114%.
In the same order, the values of `CCCCc1ccc(/C=C2\C(=O)c3ccccc3C(O)=C2C(=O)OCC)cc1` are > 50 µM (inactive) and 15.5%.
On the same counts, the results for `Cc1ccc2nc(/C(C#N)=C\c3ccc(N4CCOCC4)o3)[nH]c2c1` are 13.1 µM and 80.2%.
Turning to `COc1ccccc1NS(=O)(=O)c1cc([N+](=O)[O-])ccc1N/N=C/c1c(C)[nH]c2ccccc12`, in assay [1], the IC50 is > 50 µM (inactive). In assay [2], the inhibition stood at 16.5%.
In the case of `CC1CCc2cc(F)ccc2N1C(=O)CCl` (stereo not drawn), the IC50 in assay [1] is 10.5 µM. Also, the inhibition in assay [2] came out at 77.7%.
On the same counts, the results for `CCN1CCN(C2=CC3=CC(=C(C#N)C#N)CCC3CC2)CC1` (stereo not drawn) are 30.6 µM and 99.2%.
In the same order, the values of `Nc1cccc2c1C(=O)N(C(=O)/C=C/c1cccc(F)c1)C2=O` are > 50 µM (inactive) and 14.3%.
On the same counts, the results for `Cc1ccc(N2C(=O)NC(=O)/C(=C\C=C\c3ccco3)C2=O)cc1` are 27.7 µM and 108%.
Take `COc1ccc(-n2c(C)cc(C(=O)CCl)c2C)cc1`: the IC50 in assay [1] was 13.1 µM. Also, in assay [2], the inhibition came out at 80.4%.
For `COC(=O)c1cc(=O)n(CCc2ccc(OC)cc2)c(=Nc2ccc(F)c(Cl)c2)s1`, the IC50 in assay [1] was > 50 µM (inactive). In assay [2], the inhibition worked out at 13.5%.
On to `Cc1ccc(NC(=O)C(=Cc2ccc(C(=O)O)cc2)C(=O)Nc2ccc(C)cc2C)c(C)c1`, for which, in assay [1], the IC50 was 11.1 µM. The inhibition in assay [2] was 78%.
Take `O=C(c1ccc(F)cc1)C(CN1CCOCC1)c1ccccc1` (stereo not drawn): the IC50 in assay [1] is 7.15 µM. In assay [2], the inhibition stood at 85.7%.
